Assay results published in US6858638B2, “Substituted indazoles, compositions containing them, method of production and use” (Aventis Pharma S.A., priority 2002, dated 2005).

Tests used:
human KDR enzyme = molecular target: T1, human KDR enzyme (Homo sapiens, UniProt P35968); assay: KDR substrate (PLCγ) phosphorylation, scintillation assay; assay type: biochemical; conditions: 10 μM; read-out: KDR % inhib at 10 μM
T1 construct: The cytoplasmic domain of the human KDR enzyme; GST; made in house; host or cells: SF21 insect cells (baculovirus)
Outline: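 Values are percent inhibition relative to the compound-free control, read by scintillation counting of 33P incorporation after EDTA stop. Baculovirus/SF21-expressed GST-KDR cytoplasmic domain (100 ng) acted for 1 h at 37 °C in pH 7.2 MOPS kinase buffer. The substrate was GST-PLCγ SH2-SH3 (2 μg), added with γ33P-ATP and 2 μM unlabeled ATP.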

c-Src protein = assay: Src kinase phosphorylation of biotinylated cdc2 substrate, fluorescence (DELFIA); assay type: biochemical, human
Protocol: The inhibition of the Src kinase is evaluated by measuring the phosphorylation of the biotinylated cdc2 substrate (Pierce) detected by fluorescence (DELFIA) using an antiphosphotyrosine antibody labeled with Europium, in 96-well Wallac plates. The c-Src protein used is a recombinant human protein produced in Baculovirus, comprising the SH3 and SH2 and the catalytic domains. The enzyme, the substrate and the various concentrations of test compounds are placed in the well in a 50 mM Tris buffer containing 10 mM MgCl2. The reaction is initiated by adding 10 μM of ATP. After incubation for 60 minutes at 30° C., the reaction is stopped by adding 75 mM EDTA. 50 μl are taken from each well and transferred into a plate coated with streptavidin. After incubation for 30 minutes at 25° C., the wells are washed with a washing buffer (Wallac) and then the antiphosphotyrosine antibody (PY20-Europium [Perkin Elmer]) is added in a volume of 75 μl. The plate is incubated for 30 minutes at 25° C. and then an “Enhancer” solution (Wallac) is added before reading the fluorescence using a fluorimeter (Perkin Elmer). The background noise is evaluated in triplicate in wells containing the substrate and the antibody in the absence of enzyme. The activity of the enzyme is measured (in triplicate) in the wells containing all the reagents in the absence of compound. The inhibition of the Src activity is expressed as percentage inhibition of the activity of the control determined in the absence of compound. The compound PP2 (Calbiochem) is included at various concentrations in each experiment as an inhibition control.

T1 sequence (P35968 786-1356 limits assumed): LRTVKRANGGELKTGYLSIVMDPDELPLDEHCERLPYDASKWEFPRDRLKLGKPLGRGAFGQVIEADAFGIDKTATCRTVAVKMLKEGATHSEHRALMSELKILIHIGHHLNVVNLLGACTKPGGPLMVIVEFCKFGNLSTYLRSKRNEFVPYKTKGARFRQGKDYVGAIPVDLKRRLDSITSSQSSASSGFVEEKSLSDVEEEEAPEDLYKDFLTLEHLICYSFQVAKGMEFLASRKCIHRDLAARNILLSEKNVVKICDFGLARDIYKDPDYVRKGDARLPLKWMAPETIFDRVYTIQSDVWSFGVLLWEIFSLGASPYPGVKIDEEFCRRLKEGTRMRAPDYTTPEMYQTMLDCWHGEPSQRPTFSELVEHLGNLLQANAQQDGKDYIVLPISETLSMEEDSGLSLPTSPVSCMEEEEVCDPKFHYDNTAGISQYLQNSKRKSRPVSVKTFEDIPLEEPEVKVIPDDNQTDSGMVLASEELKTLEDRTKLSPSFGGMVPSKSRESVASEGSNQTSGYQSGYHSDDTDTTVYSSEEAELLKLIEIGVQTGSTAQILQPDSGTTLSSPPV

In the case of `Nc1n[nH]c2ccc(NS(=O)(=O)c3cccc(F)c3)cc12` [Example 26, N-(3-Amino-1H-indazol-5-yl)-3-fluorobenzenesulfonamide], the inhibition at 10 µM (human KDR enzyme) is reported as 24% and the melting point is reported as 216 °C.
In the case of `COc1ccc(-c2n[nH]c3ccc(NS(=O)(=O)c4ccccc4S(C)(=O)=O)cc23)cc1` [Example 32, N-[3-(4-Methoxyphenyl)-1H-indazol-5-yl]-2-methylsulfonylbenzenesulfonamide], the inhibition at 10 µM (human KDR enzyme) is reported as 87% and the melting point is reported as 244 °C.
With `CS(=O)(=O)c1ccccc1S(=O)(=O)Nc1ccc2[nH]nc(-c3ccc(F)cc3)c2c1` [Example 33, N-[3-(4-Fluorophenyl)-1H-indazol-5-yl]-2-methylsulfonylbenzenesulfonamide] the inhibition at 10 µM (human KDR enzyme) was 68% and the melting point was 209 °C.
Compound `CS(=O)(=O)c1ccccc1S(=O)(=O)Nc1ccc2[nH]nc(NCc3ccccc3)c2c1` [Example 36, N-(3-Benzylamino-1H-indazol-5-yl)-2-methylsulfonylbenzenesulfonamide] has an inhibition at 10 µM (human KDR enzyme) of 23% and a melting point of 226 °C.
`CNc1n[nH]c2ccc(NS(=O)(=O)c3ccccc3S(C)(=O)=O)cc12` [Example 37, N-(3-Methylamino-1H-indazol-5-yl)-2-methylsulfonylbenzenesulfonamide] gave an inhibition at 10 µM (human KDR enzyme) of 8% and a melting point of 220 °C.
In the case of `CS(=O)(=O)c1ccccc1S(=O)(=O)Nc1ccc2[nH]nc(N)c2c1` [Example 39, N-(3-Amino-1H-indazol-5-yl)-2-methylsulfonylbenzenesulfonamide], the inhibition at 10 µM (human KDR enzyme) is reported as 20% and the melting point is reported as 246 °C.
`Nc1n[nH]c2ccc(NS(=O)(=O)c3c(F)cccc3F)cc12` [Example 40, N-(3-Amino-1H-indazol-5-yl)-2,6-difluorobenzenesulfonamide] gave an inhibition at 10 µM (human KDR enzyme) of 22% and a melting point of 241 °C.
With `Nc1n[nH]c2ccc(NS(=O)(=O)c3c(Cl)cccc3Cl)cc12` [Example 41, N-(3-Amino-1H-indazol-5-yl)-2,6-dichlorobenzenesulfonamide] the inhibition at 10 µM (human KDR enzyme) was 36% and the melting point was 250 °C.
For `Nc1n[nH]c2ccc(NS(=O)(=O)c3cc(F)cc(F)c3)cc12` [Example 42, N-(3-Amino-1H-indazol-5-yl)-3,5-difluorobenzenesulfonamide], the inhibition at 10 µM (human KDR enzyme) was 25% and the melting point was 232 °C.
`CS(=O)(=O)c1ccccc1S(=O)(=O)Nc1ccc2[nH]nc(-c3ccoc3)c2c1` [Example 52, N-(3-Furan-3-yl-1H-indazol-5-yl)-2-methylsulfonylbenzenesulfonamide] showed an inhibition at 10 µM (human KDR enzyme) of 49% and a melting point of 249 °C.
`CS(=O)(=O)c1ccccc1S(=O)(=O)Nc1ccc2[nH]nc(-c3ccco3)c2c1` [Example 53, N-(3-Furan-2-yl-1H-indazol-5-yl)-2-methylsulfonylbenzenesulfonamide] showed an inhibition at 10 µM (human KDR enzyme) of 42% and a melting point of 248 °C.
With `CS(=O)(=O)c1ccccc1S(=O)(=O)Nc1ccc2[nH]nc(-c3ccncc3)c2c1` [Example 54, 2-Methylsulfonyl-N-(3-pyridin-4-yl-1H-indazol-5-yl)benzenesulfonamide] the inhibition at 10 µM (human KDR enzyme) was 76% and the melting point was 265 °C.
In the case of `COC(=O)c1cccc(-c2n[nH]c3ccc(NS(=O)(=O)c4ccccc4S(C)(=O)=O)cc23)c1` [Example 55, Methyl 3-[5-(2-methylsulfonylbenzenesulfonamino)-1H-indazol-3-yl]benzoate], the inhibition at 10 µM (human KDR enzyme) is reported as 51% and the melting point is reported as 202 °C.
For `CS(=O)(=O)c1ccccc1S(=O)(=O)Nc1ccc2[nH]nc(-c3cc4ccccc4[nH]3)c2c1` [Example 61, N-[3-(1H-Indol-2-yl)-1H-indazol-5-yl]-2-methylsulfonylbenzenesulfonamide], the inhibition at 10 µM (human KDR enzyme) was 98% and the “SRC % inhib at 10 μM” value (c-Src protein) was 99%.
For `CN(C)c1ccc(-c2n[nH]c3ccc(NS(=O)(=O)c4ccccc4S(C)(=O)=O)cc23)cc1` [Example 63, N-[3-(4-Dimethylaminophenyl)-1H-indazol-5-yl]-2-methylsulfonylbenzenesulfonamide], the inhibition at 10 µM (human KDR enzyme) was 0% and the “SRC % inhib at 10 μM” value (c-Src protein) was 46%.
For `CS(=O)(=O)c1ccccc1S(=O)(=O)Nc1ccc2[nH]nc(-c3ccc(N)cc3)c2c1` [Example 70, N-[3-(4-Aminophenyl)-1H-indazol-5-yl]-2-methylsulfonylbenzenesulfonamide], the inhibition at 10 µM (human KDR enzyme) was 71% and the melting point was 154 °C.
In the case of `CS(=O)(=O)c1ccccc1S(=O)(=O)Nc1ccc2[nH]nc(-c3cccc(C#N)c3)c2c1` [Example 71, N-[3-(3-Cyanophenyl)-1H-indazol-5-yl]-2-methylsulfonylbenzenesulfonamide], the inhibition at 10 µM (human KDR enzyme) is reported as 83% and the melting point is reported as 240 °C.
For `CS(=O)(=O)c1ccccc1S(=O)(=O)Nc1ccc2[nH]nc(/C=C/c3ccc(F)cc3)c2c1` [Example 74, N-{3-[(E)-2-(4-Fluorophenyl)vinyl]-1H-indazol-5-yl}-2-methylsulfonylbenzenesulfonamide], the inhibition at 10 µM (human KDR enzyme) was 95% and the melting point was 248 °C.
Compound `CS(=O)(=O)c1ccccc1S(=O)(=O)Nc1ccc2[nH]nc(/C=C/c3ccc(Cl)cc3)c2c1` [Example 76, N-{3-[(E)-2-(4-Chlorophenyl)vinyl]-1H-indazol-5-yl}-2-methylsulfonylbenzenesulfonamide] has an inhibition at 10 µM (human KDR enzyme) of 92% and a melting point of 247 °C.
`COC(=O)/C=C/c1n[nH]c2ccc(NS(=O)(=O)c3ccccc3S(C)(=O)=O)cc12` [Example 79, Methyl (E)-3-[5(2-methylsulfonylbenzenesulfonylamino)-1H-indazol-3-yl]-acrylate] gave an inhibition at 10 µM (human KDR enzyme) of 50% and a melting point of 253 °C.
With `CS(=O)(=O)c1ccccc1S(=O)(=O)Nc1ccc2[nH]nc(-c3nc4ccccc4[nH]3)c2c1` [Example 81, N-[3-(1H-Benzimidazol-2-yl)-1H-indazol-5-yl]-2-methylsulfonylbenzenesulfonamide] the inhibition at 10 µM (human KDR enzyme) was 93% and the “SRC % inhib at 10 μM” value (c-Src protein) was 100%.
Compound `O=S(=O)(Nc1ccc2[nH]nc(-c3cc4ccccc4[nH]3)c2c1)c1ccccc1OC(F)(F)F` [Example 84, N-[3-(1H-Indol-2-yl)-1H-indazol-5-yl]-2-trifluoromethoxybenzenesulfonamide] has an inhibition at 10 µM (human KDR enzyme) of 98% and a melting point of 172 to 174 °C.
For `CS(=O)(=O)c1ccccc1S(=O)(=O)Nc1ccc2[nH]nc(Sc3ccccc3)c2c1` [Example 88, 2-Methylsulfonyl-N-(3-phenylsulfanyl-1H-indazol-5-yl)-benzenesulfonamide], the inhibition at 10 µM (human KDR enzyme) was 25% and the melting point was 195 °C.
`CS(=O)(=O)c1ccccc1S(=O)(=O)Nc1ccc2[nH]nc(C#Cc3ccccc3)c2c1` [Example 89, 2-Methylsulfonyl-N-(3-phenylethynyl-1H-indazol-5-yl)-benzenesulfonamide] showed an inhibition at 10 µM (human KDR enzyme) of 85% and a melting point of 198 °C.
For `Cc1cc2[nH]nc(-c3ccccc3)c2cc1NS(=O)(=O)c1ccccc1S(C)(=O)=O` [Example 92, 2-Methylsulfonyl-N-(6-methyl-3-phenyl-1H-indazol-5-yl)-benzenesulfonamide], the inhibition at 10 µM (human KDR enzyme) was 66% and the melting point was 239 °C.
With `CS(=O)(=O)c1ccc(F)cc1S(=O)(=O)Nc1ccc2[nH]nc(-c3ccccc3)c2c1` [Example 93, 5-Fluoro-2-methylsulfonyl-N-(3-phenyl-1H-indazol-5-yl)-benzenesulfonamide] the inhibition at 10 µM (human KDR enzyme) was 83% and the melting point was 224 °C.
Work on `Nc1ccc(S(=O)(=O)Nc2ccc3[nH]nc(-c4ccccc4)c3c2)cc1` [Example 94, 4-Amino-N-(3-phenyl-1H-indazol-5-yl)benzenesulfonamide] yielded an inhibition at 10 µM (human KDR enzyme) of 88% and a melting point of 249 °C.
In the case of `CC(=O)Nc1ccc(S(=O)(=O)Nc2ccc3[nH]nc(-c4ccccc4)c3c2)cc1` [Example 95, N-[4-(3-Phenyl-1H-indazol-5-ylsulfamoyl)phenyl]acetamide], the inhibition at 10 µM (human KDR enzyme) is reported as 34% and the melting point is reported as 167 °C.
Work on `O=S(=O)(Nc1ccc2[nH]nc(-c3ccccc3)c2c1)C1CCNCC1` [Example 100, N-(3-Phenyl-1H-indazol-5-yl)-piperidine-4-sulfonamide] yielded an inhibition at 10 µM (human KDR enzyme) of 74% and a melting point of 230 °C.
For `O=S(=O)(Nc1ccc2[nH]nc(-c3ccccc3)c2c1)c1ccccc1C(F)(F)F` [Example 109, N-(3-Phenyl-1H-indazol-5-yl)-2-trifluoromethylbenzene-sulfonamide], the inhibition at 10 µM (human KDR enzyme) was 91% and the “SRC % inhib at 10 μM” value (c-Src protein) was 42%.
In the case of `O=S(=O)(Nc1ccc2[nH]nc(-c3ccccc3)c2c1)c1cccs1` [Example 110, N-(3-Phenyl-1H-indazol-5-yl)-thiophene-2-sulfonamide], the inhibition at 10 µM (human KDR enzyme) is reported as 91% and the “SRC % inhib at 10 μM” value (c-Src protein) is reported as 45%.
In the case of `O=S(=O)(Nc1ccc2[nH]nc(-c3ccccc3)c2c1)c1ccccc1` [Example 112, N-(3-Phenyl-1H-indazol-5-yl)benzenesulfonamide], the inhibition at 10 µM (human KDR enzyme) is reported as 93% and the “SRC % inhib at 10 μM” value (c-Src protein) is reported as 47%.
